Experiments:
Streptomyces murinus = test: agar diffusion test (antibiogram on solid nutrient plates with antibiotic diffusion); format: cell-based; details: agar plate containing Streptomyces murinus culture
Procedure: Moreover to be emphasized is an antimicrobial inhibitory action of the compounds of formula (I) according to the invention on bacteria, such as, for example, Staphylococcus aureus, Streptomyces murinus and against fungi, such as Aspergillus niger, which can cause stubborn, life-threatening infectious diseases. […] Thus, penilenone on an agar plate containing Streptomyces murinus culture in a solution of 1 mg per mL causes an inhibition halo of 11 mm and in a solution of 0.1 mg per mL an inhibition halo of 8 mm. The compounds of the formula (I) according to the invention are therefore likewise suitable for the treatment and/or prophylaxis of bacterial infections and/or fungal diseases (micosis or mycoses).

[1] = reaction with atmospheric oxygen (antioxidant action); format: physicochemical; details: in solution and in solid form
Excerpt: The compounds of the formula (I) can also be used as antioxidants. Antioxidants (oxidation inhibitors) are organic compounds which inhibit or prevent undesired changes in the substances to be protected caused by the effects of oxygen. Antioxidants are needed, for example, in plastics for protection against ageing, in fats for protection against rancidity, in oils against resinification, in aromatic substances against odor impairment, in foodstuffs, and in pharmaceuticals. The action of the antioxidants usually consists in acting as radical scavengers for the free radicals occurring in the oxidation. The antioxidative action of atrovenetin (compound of the formula (III)) has already been described by Y. Ishikawa et al. (J. Am. Oil Chem. Soc. 68, 666-668, 1991). Microbial antioxidants, however, are often too weak or not highly tolerable in their action. There is therefore a great need for novel, efficacious and tolerable antioxidants. […] This increased affinity of penilenone for oxygen, however, is decidedly advantageous for very oxidation-sensitive substances.

[2] = stability (physicochemical properties)
Excerpt: (§1) The melting point is not determinable because of decomposition. Stable in mildly acidic medium under reducing conditions. Under the influence of oxygen, penilenone turns green in neutral medium or in the presence of amines.

[3] = solubility (physicochemical properties)
Excerpt: as §1

SMILES | inhibition halo (Streptomyces murinus; solution of 0.1 mg per mL) [mm] | inhibition halo (Streptomyces murinus; solution of 1 mg per mL) [mm] | reaction with atmospheric oxygen [1] | stability ([2]; mildly acidic medium under reducing conditions) | behaviour under the influence of oxygen ([2]; neutral medium or in the presence of amines) | solubility in organic solvents ([3]; medium polar and polar organic solvents) | solubility in water ([3]; water)
Cc1cc(O)c2c3c(c(O)cc(O)c13)C(O)=C(O)C2=O [penilenone] | 8 | 11 | combines with oxygen within seconds or in a few minutes | Stable | turns green | soluble in medium polar and polar organic solvents | not very soluble in water
Cc1cc(O)c2c3c(c(O)c4c(c13)OC(C)C4(C)C)C(O)=C(O)C2=O (centres unmarked) [atrovenetin, reference compound] | – | – | reacts only slowly with atmospheric oxygen | – | – | – | –

Reference: US20040014807A1, “Phenalenone derivatives, processes for preparation and use thereof” (priority 2002, published 2004)
